Laboratory results as given in paper PMC4909242, “Cyclization strategies of meditopes: affinity and diffraction studies of meditope–Fab complexes” (Acta Crystallographica. Section F, Structural Biology …, 2016).

System: cetuximab IgG
Assay: Surface plasmon resonance binding kinetics of meditope variants to cetuximab
Details: SPR; for k a / k d: Biacore T100, cetuximab IgG amine-coupled to CM5 chip (5000 RU), HBS-EP+ pH 7.4, flow 30 µl min^−1; for k a: error <38% for values of variants marked ‡; for k d: off-rate independent of peptide concentration

Structure (SMILES) | k a [M^−1 s^−1 × 10^4] | k d [s⁻¹] | increase in affinity compared with the original meditope (ratio of K d to the original disulfide meditope) [fold] | decrease in the on-rate compared with the long meditope (ratio of k a) [fold]
CC(C)C[C@@H]1NC(=O)[C@H](CCCNC(=N)N)NC(=O)[C@H](CCCNC(=N)N)NC(=O)[C@H]([C@@H](C)O)NC(=O)[C@H](CO)NC(=O)[C@H](CC(C)C)NC(=O)[C@H](CC(=O)O)NC(=O)[C@H](Cc2ccccc2)NC(=O)[C@H](CCC(N)=O)NC(=O)CCNC(=O)CCNC(=O)[C@H](CCCCN)NC1=O | 5.8 | 0.091 | – | –
CC(C)C[C@@H]1NC(=O)[C@H](CCCNC(=N)N)NC(=O)[C@H](CCCNC(=N)N)NC(=O)[C@H]([C@@H](C)O)NC(=O)[C@H](CO)NC(=O)[C@H](CC(C)C)NC(=O)[C@H](CC(=O)O)NC(=O)[C@H](Cc2ccccc2)NC(=O)[C@H](CCC(N)=O)NC(=O)[C@@H](N)CSSC[C@@H](C(N)=O)NC(=O)[C@H](CCCCN)NC1=O | 12 | 0.018 | – | –
CC(C)C[C@@H]1NC(=O)[C@H](CCCNC(=N)N)NC(=O)[C@H](CCCNC(=N)N)NC(=O)[C@H]([C@@H](C)O)NC(=O)[C@H](CO)NC(=O)[C@H](CC(C)C)NC(=O)[C@H](CC(=O)O)NC(=O)[C@H](Cc2ccccc2)NC(=O)[C@H](CCC(N)=O)NC(=O)CCCCCCNC(=O)[C@H](CCCCN)NC1=O | 3.8 | 0.064 | – | –
CC(=O)N[C@H]1CSSC[C@@H](C(=O)NCC(=O)NCC(=O)N[C@@H](CO)C(=O)N[C@@H](CCCCN)C(=O)O)NC(=O)[C@H](CCCNC(=N)N)NC(=O)[C@H](CC(C)C)NC(=O)[C@H](CCCNC(=N)N)NC(=O)[C@H](CCCNC(=N)N)NC(=O)[C@H]([C@@H](C)O)NC(=O)[C@H](CO)NC(=O)[C@H](CC(C)C)NC(=O)[C@H](CC(=O)O)NC(=O)[C@H](Cc2ccccc2)NC(=O)[C@H](CCC(N)=O)NC1=O | – | 0.010 | – | –
CC(=O)N[C@H]1CSSC[C@@H](C(N)=O)NC(=O)[C@H](CCCCN)NC(=O)[C@H](CC(C)C)NC(=O)[C@H](CCCNC(=N)N)NC(=O)[C@H](CCCNC(=N)N)NC(=O)[C@H]([C@@H](C)O)NC(=O)[C@H](CO)NC(=O)[C@H](CC(C)C)NC(=O)[C@H](CC(=O)O)NC(=O)[C@H](Cc2ccccc2)NC(=O)[C@H](CCC(N)=O)NC1=O | 15 | 0.011 | ~2.3 | –
CC(C)C[C@@H]1NC(=O)[C@H](CCCNC(=N)N)NC(=O)[C@H](CCCNC(=N)N)NC(=O)[C@H]([C@@H](C)O)NC(=O)[C@H](CO)NC(=O)[C@H](CC(C)C)NC(=O)[C@H](CC(=O)O)NC(=O)[C@H](Cc2ccccc2)NC(=O)[C@H](CCC(N)=O)NC(=O)CCSSC[C@@H](C(=O)O)NC(=O)[C@H](CCCCN)NC1=O | 2.1 | 0.012 | – | ~4.4
